According to article PMC9812923 (2022):

Key:
[1] = tested on: GA2 (DNA, G4) GAGGGAGGGAAAAGGGGAGGGA; test: UV-Vis titration, SVD; conditions: 5 mM K+, 95 mM Li+; 10 mM lithium cacodylate pH 7.2, 20 °C; 1:1 model
[2] = tested on: GA3 (DNA, G4) AGGGAAAAGGGGAGGGAAAAGGGGA; test: UV-Vis melting, 295 nm; conditions: 100 mM K+; 10 mM lithium cacodylate pH 7.2; 2 equivalents NMM, ~4 μM DNA
[3] = tested on: GA1 (DNA, G4) GAGGGAGGGAGGGAAAAGGGGA; test: UV-Vis melting, 295 nm; conditions: 100 mM K+; 10 mM lithium cacodylate pH 7.2; 2 equivalents NMM, ~4 μM DNA
[4] = tested on: GA2 (DNA, G4) GAGGGAGGGAAAAGGGGAGGGA; test: UV-Vis melting, 295 nm; conditions: 100 mM K+; 10 mM lithium cacodylate pH 7.2; 2 equivalents NMM, ~4 μM DNA

CCc1c(C)c2cc3nc(cc4nc(cc5c(CC)c(C)c(cc1[nH]2)n5C)C(C)=C4CCC(=O)O)C(CCC(=O)O)=C3C
Ka [1]: 1.4 ± 0.1 µM⁻¹ | ΔTm [2]: 7.0 ± 1.7 °C | ΔTm [3]: 14.6 ± 1.1 °C | ΔTm [4]: 13.1 ± 0.8 °C
